Experimental data from ChEMBL document CHEMBL1201862, “PubChem BioAssay data set” (2004).
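Five concentrations, 48 hours, 96-well plates. Here, GI50 denotes the concentration required for 50% inhibition of growth.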 Activity calls are given as the source filed them. Cut-off read from the data, not from the text of the source: active = GI50 up to about 1.1 µM and inactive = higher.

Experiments:
Test in all cases: NCI-60 cell line screen, 48 h
LOX IMVI = test system: LOX IMVI
HL-60 = test system: HL-60
COLO 205 = test system: COLO 205
IGROV-1 = test system: IGROV-1
SF-295 = test system: SF-295
OVCAR-5 = test system: OVCAR-5
SNB-19 = test system: SNB-19
A549 = test system: A549
SK-MEL-2 = test system: SK-MEL-2
SK-OV-3 = test system: SK-OV-3
UACC-257 = test system: UACC-257
SK-MEL-5 = test system: SK-MEL-5
CCRF-CEM = test system: CCRF-CEM
NCI-H522 = test system: NCI-H522
NCI-H23 = test system: NCI-H23
HOP-92 = test system: HOP-92
CAKI-1 = test system: CAKI-1
NCI-H226 = test system: NCI-H226
HCT-116 = test system: HCT-116
HOP-62 = test system: HOP-62

SMILES	GI50 (LOX IMVI)	GI50 (HL-60)	GI50 (COLO 205)	GI50 (IGROV-1)	GI50 (SF-295)	GI50 (OVCAR-5)	GI50 (SNB-19)	GI50 (A549)	GI50 (SK-MEL-2)	GI50 (SK-OV-3)	GI50 (UACC-257)	GI50 (SK-MEL-5)	GI50 (CCRF-CEM)	GI50 (NCI-H522)	GI50 (NCI-H23)	GI50 (HOP-92)	GI50 (CAKI-1)	GI50 (NCI-H226)	GI50 (HCT-116)	GI50 (HOP-62)
C=C=C(Sc1ccccc1)C(C)(C)OC(C)=O	16.5 µM (inactive)	26.7 µM (inactive)	18.4 µM (inactive)	17.6 µM (inactive)	18.2 µM (inactive)	20.3 µM (inactive)	18.8 µM (inactive)	23.9 µM (inactive)	17.9 µM (inactive)	25.1 µM (inactive)	17.2 µM (inactive)	15.8 µM (inactive)	20.2 µM (inactive)	15.6 µM (inactive)	17.2 µM (inactive)	15.8 µM (inactive)	34.9 µM (inactive)	21.4 µM (inactive)	13.9 µM (inactive)	–
CN1C(=O)N(C)C2(CCN(CC(CC3OCCO3)c3ccc(F)cc3)CC2)C1=O (stereo not given)	> 100 µM (inactive)	> 100 µM (inactive)	> 100 µM (inactive)	> 100 µM (inactive)	> 100 µM (inactive)	> 100 µM (inactive)	> 100 µM (inactive)	> 100 µM (inactive)	> 100 µM (inactive)	> 100 µM (inactive)	> 100 µM (inactive)	> 100 µM (inactive)	> 100 µM (inactive)	> 100 µM (inactive)	> 100 µM (inactive)	> 100 µM (inactive)	> 100 µM (inactive)	> 100 µM (inactive)	> 100 µM (inactive)	> 100 µM (inactive)
C/C(C[n+]1ccccc1)=N\N=C(N)N	> 100 µM (inactive)	> 100 µM (inactive)	> 100 µM (inactive)	> 100 µM (inactive)	> 100 µM (inactive)	> 100 µM (inactive)	> 100 µM (inactive)	> 100 µM (inactive)	73.8 µM (inactive)	> 100 µM (inactive)	> 100 µM (inactive)	> 100 µM (inactive)	> 100 µM (inactive)	> 100 µM (inactive)	> 100 µM (inactive)	> 100 µM (inactive)	> 100 µM (inactive)	> 100 µM (inactive)	> 100 µM (inactive)	> 100 µM (inactive)
O=C(O)C(CSC(c1ccccc1)(c1ccccc1)c1ccccc1)/N=C/c1cccs1 (stereo not given)	4.34 µM (inactive)	2.54 µM (inactive)	1.69 µM (inactive)	1.95 µM (inactive)	1.26 µM (inactive)	5.45 µM (inactive)	2.42 µM (inactive)	3.95 µM (inactive)	2.06 µM (inactive)	0.968 µM (active)	4.13 µM (inactive)	0.484 µM (active)	1.87 µM (inactive)	1.16 µM (inactive)	4.94 µM (inactive)	14.6 µM (inactive)	7.46 µM (inactive)	9.12 µM (inactive)	0.468 µM (active)	5.62 µM (inactive)
Cc1cc(C)c2c(O)cc(-c3cccc4ccccc34)nc2n1	0.628 µM (active)	0.26 µM (active)	0.41 µM (active)	1.49 µM (inactive)	0.615 µM (active)	2.29 µM (inactive)	1.12 µM (inactive)	0.867 µM (active)	0.291 µM (active)	0.462 µM (active)	0.238 µM (active)	0.381 µM (active)	0.719 µM (active)	0.373 µM (active)	2.13 µM (inactive)	0.361 µM (active)	2.07 µM (inactive)	1.44 µM (inactive)	0.403 µM (active)	10 µM (inactive)
COc1cc(C(=O)CC2OC(=O)C(Cl)=C2Cl)ccc1Cl (stereo not given)	> 100 µM (inactive)	> 100 µM (inactive)	> 100 µM (inactive)	> 100 µM (inactive)	> 100 µM (inactive)	> 100 µM (inactive)	> 100 µM (inactive)	> 100 µM (inactive)	> 100 µM (inactive)	> 100 µM (inactive)	> 100 µM (inactive)	> 100 µM (inactive)	69 µM (inactive)	> 100 µM (inactive)	> 100 µM (inactive)	> 100 µM (inactive)	> 100 µM (inactive)	> 100 µM (inactive)	> 100 µM (inactive)	> 100 µM (inactive)
NC(CP(=O)(O)O)C(=O)O (stereo not given)	43.6 µM (inactive)	> 100 µM (inactive)	> 100 µM (inactive)	> 100 µM (inactive)	> 100 µM (inactive)	> 100 µM (inactive)	> 100 µM (inactive)	> 100 µM (inactive)	> 100 µM (inactive)	> 100 µM (inactive)	> 100 µM (inactive)	> 100 µM (inactive)	> 100 µM (inactive)	> 100 µM (inactive)	> 100 µM (inactive)	> 100 µM (inactive)	> 100 µM (inactive)	> 100 µM (inactive)	> 100 µM (inactive)	> 100 µM (inactive)
O=C(O)C1CC2C=CCC(C2)C1 (stereo not given)	> 100 µM (inactive)	> 100 µM (inactive)	> 100 µM (inactive)	> 100 µM (inactive)	> 100 µM (inactive)	> 100 µM (inactive)	> 100 µM (inactive)	> 100 µM (inactive)	91.8 µM (inactive)	> 100 µM (inactive)	> 100 µM (inactive)	> 100 µM (inactive)	> 100 µM (inactive)	> 100 µM (inactive)	> 100 µM (inactive)	> 100 µM (inactive)	> 100 µM (inactive)	> 100 µM (inactive)	> 100 µM (inactive)	> 100 µM (inactive)
CC1SC2=NC3=C(c4ccccc4C3=O)C(c3ccccc3Cl)N2C1=O (stereo not given)	> 100 µM (inactive)	> 100 µM (inactive)	> 100 µM (inactive)	> 100 µM (inactive)	> 100 µM (inactive)	> 100 µM (inactive)	> 100 µM (inactive)	> 100 µM (inactive)	> 100 µM (inactive)	> 100 µM (inactive)	> 100 µM (inactive)	> 100 µM (inactive)	70.3 µM (inactive)	30.8 µM (inactive)	85.7 µM (inactive)	78.2 µM (inactive)	> 100 µM (inactive)	> 100 µM (inactive)	> 100 µM (inactive)	> 100 µM (inactive)
O=C(C1=C(C(=O)c2ccccc2)SC2(S1)C(C(=O)c1ccccc1)=C(C(=O)c1ccccc1)Sc1c2ssc1=O)c1ccccc1	> 100 µM (inactive)	11.2 µM (inactive)	> 100 µM (inactive)	> 100 µM (inactive)	33.5 µM (inactive)	26.8 µM (inactive)	24.6 µM (inactive)	30.5 µM (inactive)	99.1 µM (inactive)	49.3 µM (inactive)	> 100 µM (inactive)	43.6 µM (inactive)	8.34 µM (inactive)	26.7 µM (inactive)	> 100 µM (inactive)	> 100 µM (inactive)	> 100 µM (inactive)	27 µM (inactive)	82.4 µM (inactive)	> 100 µM (inactive)
c1ccc(COc2cccc3ccc[n+](Cc4ccccc4)c23)cc1	–	1.93 µM (inactive)	6.44 µM (inactive)	3.03 µM (inactive)	4.26 µM (inactive)	1.92 µM (inactive)	3.52 µM (inactive)	7.46 µM (inactive)	5.21 µM (inactive)	23.8 µM (inactive)	2.61 µM (inactive)	–	6.04 µM (inactive)	1.95 µM (inactive)	2.84 µM (inactive)	3.41 µM (inactive)	–	3.31 µM (inactive)	–	12 µM (inactive)
O=C(O)/C(O)=C1/C=C(c2ccccc2)c2ccccc21	17.9 µM (inactive)	19.9 µM (inactive)	18 µM (inactive)	22.1 µM (inactive)	18.8 µM (inactive)	23.6 µM (inactive)	29.2 µM (inactive)	26.2 µM (inactive)	16.7 µM (inactive)	30.4 µM (inactive)	20.8 µM (inactive)	17.7 µM (inactive)	18.7 µM (inactive)	16.9 µM (inactive)	–	18.9 µM (inactive)	31.4 µM (inactive)	21.6 µM (inactive)	19.6 µM (inactive)	25.4 µM (inactive)
CN(N=O)c1nc2c(C(N)=O)ncn2s1	15.2 µM (inactive)	–	> 100 µM (inactive)	63.1 µM (inactive)	68.2 µM (inactive)	> 100 µM (inactive)	> 100 µM (inactive)	> 100 µM (inactive)	35.8 µM (inactive)	48.6 µM (inactive)	94.6 µM (inactive)	> 100 µM (inactive)	45.4 µM (inactive)	76.4 µM (inactive)	> 100 µM (inactive)	32.7 µM (inactive)	28.1 µM (inactive)	> 100 µM (inactive)	53 µM (inactive)	28.8 µM (inactive)
CC(=O)c1ccc(NC(=O)/C(CC(=O)/C=C/c2ccccc2)=N/NC(N)=S)cc1	> 100 µM (inactive)	80.7 µM (inactive)	–	53.1 µM (inactive)	> 100 µM (inactive)	> 100 µM (inactive)	–	> 100 µM (inactive)	> 100 µM (inactive)	> 100 µM (inactive)	> 100 µM (inactive)	43.7 µM (inactive)	–	33.3 µM (inactive)	60 µM (inactive)	> 100 µM (inactive)	> 100 µM (inactive)	> 100 µM (inactive)	> 100 µM (inactive)	> 100 µM (inactive)
